Molecular target: Neurospora crassa wild type (1,3)β-glucan synthase (crude extract) (Neurospora crassa, UniProt Q7S0A7)
Assay: (1,3)β-glucan synthase assay with quinate added to wild type crude extract
Format: biochemical
Settings: concentrations as high as 4.0% of quinate added to the assay, data not shown
Procedure: To fresh hyphal pellets was added 20-mls of extraction buffer (25 mM HEPES (pH7.4); 10 mM NaH2 PO4; 600 mM glycerol; 10 mM NaF; 5 mM EDTA and 10 μM GTPy-S). At 4° C., hyphae were disrupted (5×30 second pulses with 2 minute coolings between each pulse) using a Bead Beater (Biospec Products, Bartlesville, Okla.) with 0.5 mm zirconium-silica beads. Lysates were centrifuged at 1000×g for 10 min at […], and used for the enzyme assays as will subsequently be described. Protein concentrations were determined by the method of Bradford using the Bio-Rad protein reagent (BioRad Labs, Hercules, Calif.). The yield was anywhere from 0.9-2.4 mg/ml crude extract depending on the transformant.
(1,3)β-Glucan synthase was assayed using modifications of a procedure previously described. To this end, in vitro reactions contained 50 μg α-amylase (type IIA; Sigma), 1 mM UDP-^14 C-glucose (~50,000 cpm/assay), and 20 μl crude extract in a final volume of 26 μl. Reactions were carried out in V-bottom 96-well microtiter plates (Dynatec Laboratories, Chantilly, Va.) and incubated at 22° C. for 0, 15, 30, 45, and 60 minutes. […]
Wrapped Inotech glass fiber filters were placed for 4-18 hours on a Molecular Dynamics Phosphor Screen. The amount of radioactivity on the filter was determined using a Molecular Dynamics Phosphor Imager Model Sl. […]

Sequence of Neurospora crassa wild type (1,3)β-glucan synthase (crude extract) (Q7S0A7 1-1955): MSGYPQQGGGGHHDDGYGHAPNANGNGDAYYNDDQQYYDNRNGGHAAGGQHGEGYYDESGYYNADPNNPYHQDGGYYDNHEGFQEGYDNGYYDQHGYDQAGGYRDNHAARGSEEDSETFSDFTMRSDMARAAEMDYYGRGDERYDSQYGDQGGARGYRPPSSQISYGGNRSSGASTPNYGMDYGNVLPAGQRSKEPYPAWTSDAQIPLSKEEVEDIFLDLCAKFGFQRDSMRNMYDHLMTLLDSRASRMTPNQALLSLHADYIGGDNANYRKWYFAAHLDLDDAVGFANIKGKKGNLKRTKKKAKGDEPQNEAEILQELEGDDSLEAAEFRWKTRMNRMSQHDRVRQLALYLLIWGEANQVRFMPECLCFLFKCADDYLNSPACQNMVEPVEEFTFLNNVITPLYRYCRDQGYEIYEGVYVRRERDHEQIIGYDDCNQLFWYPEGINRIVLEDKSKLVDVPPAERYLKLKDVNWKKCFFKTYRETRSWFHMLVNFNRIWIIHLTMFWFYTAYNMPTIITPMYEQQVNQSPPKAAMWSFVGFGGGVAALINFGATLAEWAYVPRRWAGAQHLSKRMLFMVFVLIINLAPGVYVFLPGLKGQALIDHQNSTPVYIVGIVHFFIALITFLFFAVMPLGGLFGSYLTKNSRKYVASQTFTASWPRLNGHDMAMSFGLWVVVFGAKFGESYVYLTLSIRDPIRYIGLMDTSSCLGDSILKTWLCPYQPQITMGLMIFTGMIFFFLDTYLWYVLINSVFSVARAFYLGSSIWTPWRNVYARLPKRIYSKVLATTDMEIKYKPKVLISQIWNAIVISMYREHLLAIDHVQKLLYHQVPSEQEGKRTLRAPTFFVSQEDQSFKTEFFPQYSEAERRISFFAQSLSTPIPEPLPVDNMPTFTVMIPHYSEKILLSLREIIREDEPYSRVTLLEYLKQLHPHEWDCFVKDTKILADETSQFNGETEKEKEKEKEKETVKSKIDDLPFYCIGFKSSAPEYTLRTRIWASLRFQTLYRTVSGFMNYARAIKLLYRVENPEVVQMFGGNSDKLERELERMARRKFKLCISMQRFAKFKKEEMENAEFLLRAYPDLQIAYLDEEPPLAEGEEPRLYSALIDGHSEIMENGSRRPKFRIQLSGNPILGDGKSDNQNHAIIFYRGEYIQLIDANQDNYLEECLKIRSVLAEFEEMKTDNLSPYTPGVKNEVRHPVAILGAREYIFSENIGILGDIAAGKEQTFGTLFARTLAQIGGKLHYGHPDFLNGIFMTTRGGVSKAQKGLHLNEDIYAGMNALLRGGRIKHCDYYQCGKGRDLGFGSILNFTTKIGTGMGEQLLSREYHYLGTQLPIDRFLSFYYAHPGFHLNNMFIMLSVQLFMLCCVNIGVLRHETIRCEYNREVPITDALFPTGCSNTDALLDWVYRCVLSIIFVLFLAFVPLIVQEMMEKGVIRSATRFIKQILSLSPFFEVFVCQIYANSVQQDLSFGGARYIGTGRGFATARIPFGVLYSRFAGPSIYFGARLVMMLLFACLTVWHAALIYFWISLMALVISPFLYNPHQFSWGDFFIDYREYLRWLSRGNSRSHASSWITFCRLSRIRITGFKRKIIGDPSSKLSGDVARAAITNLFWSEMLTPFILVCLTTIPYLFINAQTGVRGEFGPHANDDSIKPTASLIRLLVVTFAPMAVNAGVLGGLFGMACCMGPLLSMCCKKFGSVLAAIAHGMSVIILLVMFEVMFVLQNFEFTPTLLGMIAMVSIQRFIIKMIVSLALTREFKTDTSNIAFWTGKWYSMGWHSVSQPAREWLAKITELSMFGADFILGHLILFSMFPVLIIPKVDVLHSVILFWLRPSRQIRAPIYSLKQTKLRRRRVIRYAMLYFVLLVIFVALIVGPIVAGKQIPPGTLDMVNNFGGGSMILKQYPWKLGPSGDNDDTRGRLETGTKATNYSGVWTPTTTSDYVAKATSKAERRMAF
Sequence of Neurospora crassa wild type (1,3)β-glucan synthase (crude extract) (Q7RXU8 1-195 partner): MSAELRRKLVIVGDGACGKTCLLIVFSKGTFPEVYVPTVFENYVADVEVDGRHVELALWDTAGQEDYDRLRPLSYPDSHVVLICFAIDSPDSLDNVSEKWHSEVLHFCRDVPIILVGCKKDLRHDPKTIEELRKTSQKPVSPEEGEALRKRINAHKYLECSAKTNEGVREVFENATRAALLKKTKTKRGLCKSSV

inhibitory effect of quinate on (1,3)β-glucan synthase activity: did not show an inhibitory effect
Structure (SMILES): O=C(O)C1(O)CC(O)C(O)C(O)C1 (single isomer, unassigned) [quinate, quinic acid]
